# Where two headings read alike, the source gives them in different places.
# Tests used:
# ESAMBPCAA [1] = experiment: ESAMBPCAA mediated MBP hydrolysis in serum of treated TMEV-infected SJL mice; format: in vivo; details: days 14-24
# Description: (§1) MBP hydrolysis by anti MBP auto antibodies was assayed as follows: Purified antibodies (0.1-1 μg) were incubated at 37° C. for 14 h in the final volume of 12.5 μl PBS, 0.02% NaN3 containing 1-2 μg of MBP. The samples were mixed with Laemmli's buffer. The extent of MBP degradation was visualized by SDS-PAGE in Tris-glycine and Tricine buffer systems. For quantitative MBP degradation assay, MBP (10 μM) was incubated at 37° C. with antibodies (60 nM) in 0.1 ml of PBS, 0.02% NaN3 for 12 h. The reaction was stopped by adding 10% TFA up to pH 2.5. The samples were further chromatographed on column C4 4.0/150 (Waters). The amount of non-cleaved MBP was calculated by absorbance monitoring at 280 nm.
# (§2) The BeAn strain of TMEV used in this study was generated and propagated in BHK-21 cells grown in Dulbecco's modified Eagle's medium supplemented with 7.5% donor calf serum. For i.c. infection, 30 μl of virus solution (0.2×10^6 to 6×10^6 PFU) was injected into the right cerebral hemisphere of 6- to 8-week-old SJL mice (8 animals per group) anesthetized with isoflurane. Clinical symptoms (MDS score) of disease were assessed weekly on the following grading scale: grade 0, no clinical signs; grade 1, mild waddling gait or flaccid tail; grade 2, severe waddling gait; grade 3, moderate hind limb paresis; and grade 4, severe hind limb paralysis. Serum samples collected from animals were quantified for ESAMBPCAA mediated MBP hydrolysis as specified in Example 1
# (§3) At day 14 following infection mice were divided into 6 groups ([…]) and treated during 10 days (days 14-24) according following schedule: […]
# [2] = tested on: Experimental MS (Theiler's Virus Infection) in SJL mice; experiment: Experimental MS (Theiler's Virus Infection): disease manifestation and MDS score; format: in vivo; details: days 14-24; for % Animals affected with disease at day 100: 30 mice per group
# Description: as §2, §3
# [3] = tested on: Experimental Allergic Encephalomyelitis (EAE) in Dark Agouti (DA) Rats; experiment: EAE induced by MBP 63-81 in DA rats: clinical signs score; format: in vivo; details: for therapeutic effect: 150 μg/rat/day SC during 6 days; for Clinical signs score on day 23 after induction (mean): 150 μg/rat/day SC during 6 days from day 9-11 after EAE induction, score 0-5
# Description: Female Dark Agouti (DA) Rats, 8-9 weeks of age, about 110-145 g of weight were used as test animals.
# For induction of Experimental Allergic Encephalomyelitis (EAE), rats were injected intradermally at the base of the tail with a total volume of 200 μl of inoculum containing 50 μg of MBP 63-81 (ANASPEC), in saline mixed (1:1) with Complete Freund Adjuvant, (IFA, Sigma), and 1 mg killed M. tuberculosis strain (strain H37 RA; Difco Laboratories, Detroit, Mich.). Beginning 24 hours after EAE induction the rats were followed up daily. On day 9 after the after EAE induction more than 50% of the rats developed signs of paralysis. The animals with multiple sclerosis signs were separated into 10 groups for beginning of treatment. Prior to treatment, blood was collected from 2 rats from each group. At day 9 and 11 after EAE induction, 90% of rats developed signs of EAE.
# 9-11 days after EAE induction the animals were divided into 9 groups (5-6 rats in each). Each group of rats was treated subcutaneously once daily with different claimed oligopeptide or theirs combinations (equimolar mix) (150 μg) or doses of positive control item (Glatiramer acetate, Copaxone, Teva) or negative control item (0.9% Sodium chloride solution), during 6 days as follows:
# Copaxone, claimed oligopeptide and combinations thereof (Mechanical mix) were diluted with 0.9% Sodium chloride to a concentration of 450 μg/ml. Volume of 0.33 ml (150 μg/rat/day) was injected SC during 6 days.
# After 6 days of the injections cycle the animals were maintained and followed up till day 28th post EAE induction. Clinical signs score was performed daily during study periods. Animals were observed individually during all study periods. In cases of extended observation period clinical signs were recorded once daily. Observations included changes in the fur, eyes, respiratory rate, vocalization, paralysis, activity and behavior pattern. Score of paralysis signs related to MS of each animal was done daily (during all study periods).
# Score gradation was as follows: 0—Normal; 1—Tail weakness; 2—Hind leg weakness or paralysis; 3—Hind leg paralysis, dragging hind limbs; 4—Complete paralysis, unable to move; 5—Death.
# antibodies to MBP = details: in vitro and in vivo (in blood of MS-patients); cited from earlier work
# [4] = tested on: progressive multiple sclerosis patients; details: 500 mg intravenously every six months; cited from earlier work
# ESAMBPCAA [5] = experiment: ESAMBPCAA mediated MBP hydrolysis in serum samples of progressive MS patients in presence of test substances; format: biochemical, human; details: for suppressive effect on MBP-specific auto antibody mediated hydrolysis: 100 nM, summary of Table 3; for MBP-specific auto antibody mediated hydrolysis: test substance 100 nM
# Description: as §1
# Serum samples collected from 5 patients suffering from progressive MS were quantified for ESAMBPCAA mediated MBP hydrolysis as specified in Example 1 in presence of following substances: […]
# ESAMBPCAA [6] = experiment: ESAMBPCAA mediated MBP hydrolysis in serum of treated EAE DA rats; format: in vivo; details: days 8-12; for rates of MBP-specific auto antibody mediated hydrolysis: 120 μg daily intranasal, median for 6 animals; for suppression of MBP-specific auto antibody mediated hydrolysis: intranasal, dose-dependent for SEQ ID NO: 2
# [7] = tested on: Experimental Allergic Encephalomyelitis (EAE) in DA rats; experiment: MDS score in EAE DA rats; format: in vivo; details: intranasal, days 8-12; FIG. 4; dose-dependent for SEQ ID NO: 2
# [8] = tested on: relapsing-remitting multiple sclerosis patients; details: Neurology 1995; 45: 1268; cited from earlier work
# CD20+ B lymphocytes = details: relapsing-remitting multiple sclerosis (RRMS) patients; cited from earlier work
# [9] = tested on: relapsing-remitting multiple sclerosis patients; details: Neurology 1993; 43: 662-7; cited from earlier work
# [10] = 20 μg of each oligopeptide daily subcutaneous
molecule,measurement,setting,value
QGTLSKIFKLGGRDSRSGSPMARR [SEQ ID NO: 4],ESAMBPCAA activity at day 100,ESAMBPCAA [1]; [10],35.3 ± 5.1 pmol/min/nmol
same,suppression of MBP-specific auto antibody mediated hydrolysis,ESAMBPCAA [1]; [10],do not affect
same,therapeutic effect,[2]; [10],moderate therapeutic effect
same,% Animals affected with disease at day 100,[2]; [10],27(30) %
same,therapeutic effect,[3],moderate therapeutic effect
same,Clinical signs score on day 23 after induction (mean),[3],0.8
"MBP 75-95: soluble synthetic peptide, residues 75-95 of human MBP (WO 98/45327) (NAWQDAHPADPGSRPHLIRLF; UniProt P02686 75-95, looked up, fragment)",effect on free and bound antibodies to MBP,antibodies to MBP,showed its ability to bound free antibodies to MBP both in vitro and in vivo
"DENPVVHFFKNIVTPRT [MBP8298, synthetic peptide, amino acid residues 82-98 of MBP]",responders on the treatment,[4],responders on the treatment with MBP8298 are the patients with HLA heliotypes DR2 and/or DR4 only
"MBP 35-58: non-binding, control peptide, human MBP 35-58 (LSRTTSEDNEVFGEADANQNNGTS; UniProt P02686 35-58, looked up, fragment)",effect on free and bound antibodies to MBP,antibodies to MBP,no effect
APKRGSGKDSH [A4],suppressive effect on MBP-specific auto antibody mediated hydrolysis,ESAMBPCAA [5],potent suppressive effect
same,MBP-specific auto antibody mediated hydrolysis,ESAMBPCAA [5]; Patient 1,12.1 ± 3.6 pmol/min/nmol
same,MBP-specific auto antibody mediated hydrolysis,ESAMBPCAA [5]; Patient 2,15.6 ± 2.9 pmol/min/nmol
same,MBP-specific auto antibody mediated hydrolysis,ESAMBPCAA [5]; Patient 3,14.3 ± 4.4 pmol/min/nmol
same,MBP-specific auto antibody mediated hydrolysis,ESAMBPCAA [5]; Patient 4,15.8 ± 4.9 pmol/min/nmol
same,MBP-specific auto antibody mediated hydrolysis,ESAMBPCAA [5]; Patient 5,13.3 ± 5.9 pmol/min/nmol
same,rates of MBP-specific auto antibody mediated hydrolysis,ESAMBPCAA [6]; Day 8 (start of treatment),49.3 ± 4.9 pmol/min/nmol
same,rates of MBP-specific auto antibody mediated hydrolysis,ESAMBPCAA [6]; Day 16,45.9 ± 7.1 pmol/min/nmol
same,rates of MBP-specific auto antibody mediated hydrolysis,ESAMBPCAA [6]; Day 24,45.1 ± 6.3 pmol/min/nmol
same,suppression of MBP-specific auto antibody mediated hydrolysis,ESAMBPCAA [6],active in suppression
same,suppression of MDS score,[7],active in suppression
"glatiramer acetate [A2, reference compound]",MBP-specific auto antibody mediated hydrolysis,ESAMBPCAA [5]; Patient 1,62.5 ± 1.2 pmol/min/nmol
same,MBP-specific auto antibody mediated hydrolysis,ESAMBPCAA [5]; Patient 2,72.6 ± 7.7 pmol/min/nmol
same,MBP-specific auto antibody mediated hydrolysis,ESAMBPCAA [5]; Patient 3,51.2 ± 3.5 pmol/min/nmol
same,MBP-specific auto antibody mediated hydrolysis,ESAMBPCAA [5]; Patient 4,47.7 ± 7.9 pmol/min/nmol
same,MBP-specific auto antibody mediated hydrolysis,ESAMBPCAA [5]; Patient 5,65.7 ± 5.4 pmol/min/nmol
same,rates of MBP-specific auto antibody mediated hydrolysis,ESAMBPCAA [6]; Day 8 (start of treatment),51.4 ± 8.2 pmol/min/nmol
same,rates of MBP-specific auto antibody mediated hydrolysis,ESAMBPCAA [6]; Day 16,55.4 ± 5.7 pmol/min/nmol
same,rates of MBP-specific auto antibody mediated hydrolysis,ESAMBPCAA [6]; Day 24,62.2 ± 5.7 pmol/min/nmol
same,ESAMBPCAA activity at day 100,ESAMBPCAA [1]; 30 μg daily subcutaneous,39.8 ± 4.1 pmol/min/nmol
same,% Animals affected with disease at day 100,[2]; 30 μg daily subcutaneous,25(30) %
same,Clinical signs score on day 23 after induction (mean),[3],1.1
same,Adverse Reactions,[8],Low
same,Clinical Observations: Decrease of relapse frequency,[8],frequency—29%;
same,Clinical Observations: EDSS score progression,[8],Slowing EDSS
same,MRI Data: decrease of active lesions,[8],No statistical
GFGYGGRASDYKSAHK [SEQ ID NO: 3],ESAMBPCAA activity at day 100,ESAMBPCAA [1]; [10],40 ± 3.1 pmol/min/nmol
same,suppression of MBP-specific auto antibody mediated hydrolysis,ESAMBPCAA [1]; [10],do not affect
same,therapeutic effect,[2]; [10],moderate therapeutic effect
same,% Animals affected with disease at day 100,[2]; [10],25(30) %
same,therapeutic effect,[3],moderate therapeutic effect
same,Clinical signs score on day 23 after induction (mean),[3],0.9
"rituximab: monoclonal antibody, which selectively targets and depletes CD20+ B lymphocytes",safety and efficacy of therapy,CD20+ B lymphocytes,appears safe and effective to some extend
RGAPKRGSGKRGAPKRGSGKRGAPKRGSGKRGAPKRGSGKRGAPKRGSGKRGAPKRGSGK [A6],suppressive effect on MBP-specific auto antibody mediated hydrolysis,ESAMBPCAA [5],potent suppressive effect
same,MBP-specific auto antibody mediated hydrolysis,ESAMBPCAA [5]; Patient 1,7.7 ± 3.3 pmol/min/nmol
same,MBP-specific auto antibody mediated hydrolysis,ESAMBPCAA [5]; Patient 2,22.3 ± 4.2 pmol/min/nmol
same,MBP-specific auto antibody mediated hydrolysis,ESAMBPCAA [5]; Patient 3,20.1 ± 3.9 pmol/min/nmol
same,MBP-specific auto antibody mediated hydrolysis,ESAMBPCAA [5]; Patient 4,21.5 ± 6.6 pmol/min/nmol
same,MBP-specific auto antibody mediated hydrolysis,ESAMBPCAA [5]; Patient 5,5.0 ± 1.8 pmol/min/nmol
same,rates of MBP-specific auto antibody mediated hydrolysis,ESAMBPCAA [6]; Day 8 (start of treatment),45.7 ± 6.5 pmol/min/nmol
same,rates of MBP-specific auto antibody mediated hydrolysis,ESAMBPCAA [6]; Day 16,48.1 ± 7.4 pmol/min/nmol
same,rates of MBP-specific auto antibody mediated hydrolysis,ESAMBPCAA [6]; Day 24,39.4 ± 4.6 pmol/min/nmol
same,suppression of MBP-specific auto antibody mediated hydrolysis,ESAMBPCAA [6],active in suppression
same,suppression of MDS score,[7],active in suppression
SGKDS [A5],MBP-specific auto antibody mediated hydrolysis,ESAMBPCAA [5]; Patient 1,57 ± 4.1 pmol/min/nmol
same,MBP-specific auto antibody mediated hydrolysis,ESAMBPCAA [5]; Patient 2,59.7 ± 5.7 pmol/min/nmol
same,MBP-specific auto antibody mediated hydrolysis,ESAMBPCAA [5]; Patient 3,44.2 ± 6.6 pmol/min/nmol
same,MBP-specific auto antibody mediated hydrolysis,ESAMBPCAA [5]; Patient 4,45.5 ± 3.8 pmol/min/nmol
same,MBP-specific auto antibody mediated hydrolysis,ESAMBPCAA [5]; Patient 5,55.7 ± 6.1 pmol/min/nmol
"Beta-Interferon: Beta-Interferon, existing standard of MS therapy (protein, UniProt P01574 22-187, looked up, variant C17S, interferon beta-1b, lacks N-terminal Met, Beta-Interferon, existing standard of MS therapy) Interferon beta: MSYNLLGFLQRSSNFQSQKLLWQLNGRLEYCLKDRMNFDIPEEIKQLQQFQKEDAALTIYEMLQNIFAIFRQDSSSTGWNETIVENLLANVYHQINHLKTVLEEKLEKEDFTRGKLMSSLHLKRYYGRILHYLKAKEYSHCAWTIVRVEILRNFYFINRLTGYLRN",Adverse Reactions,[9],High
same,Clinical Observations: Decrease of relapse frequency,[9],frequency—83%;
same,Clinical Observations: EDSS score progression,[9],No slowing EDSS
same,MRI Data: decrease of active lesions,[9],83% decrease

# — US9896491B2, “Composition for treatment of multiple sclerosis” (LIFEBIO LABORATORIES LLC, priority 2009, dated 2018)
